Source: patent US6943017B2, “Method of producing antihypercholesterolemic agents” (Wisconsin Alumni Research Foundation, priority 1998, dated 2005)

How the values were obtained:
Format in all cases: cell-based
fungi = assay: Antifungal activity (general statement); settings: noted by Applicants, no test described
Source text: Applicants envision that the present invention is also useful for providing antifungal compounds and organisms engineered to express antifungal compounds. Preferably, one would measure the antifungal properties of a compound in the manner of N. Lomovskaya, et al., Microbiology 143:875-883, 1997. Measurement of inhibition of yeast growth can be found in R. Ikeura, et al., J. Antibiotics 41:1148, 1988. The same general methods could be used for all fungi. Both of these references are hereby incorporated by reference.

[1] = tested on: A. nidulans strains WMH1739 and WMH1740 (WMH1738 transformed with pWHM1263); assay: Lovastatin resistance test: spore suspension streaked on solid AMM plates containing lovastatin
Description: (§1) This strain WMH1738 was transformed to hygromycin B resistance with pWHM1263. Transformant colonies were screened for lovastatin resistance and for the production of new metabolites as described below and two strains WMH1739 and WMH1740 were chosen for further analysis. […] This was analyzed by streaking 10 μl of a spore suspension on solid AMM plates containing lovastatin at 0, 0.1, 0.5, 1, 5, 10, 50 and 100 μg/ml and incubating at 37° C. Strains WMH1739 and WMH1740 were compared to strains WMH1741 and WMH1742 which were derivatives of WMH1738 transformed to hygromycin resistance with AN26. […] The two lovastatin resistant strains were fermented in lovastatin-producing conditions using fermentation method B and extracts were analyzed for lovastatin related metabolites as described below. […] One compound that was common to both comigrated with monacolin J on TLC and HPLC analysis by the methods described below. Semi-preparative HPLC was used to partially purify some of this compound, which was then analyzed by HPLC—MS. It had the same mass and fragmentation pattern as authentic monacolin J. The other compound, found in only one of the strains, comigrated with monacolin L on TLC and HPLC.

[2] = tested on: A. nidulans strains WMH1741 and WMH1742 (WMH1738 transformed with AN26); assay: as above; settings: 37° C.
Description: as §1

SMILES | antifungal activity (fungi) | inhibition of growth ([1]; strains WMH1739 and WMH1740, lovastatin at 0, 0.1, 0.5, 1, 5, 10, 50 and 100 μg/ml on solid AMM plates, 37° C.) | lovastatin concentration to which strains were significantly resistant ([1]; strains WMH1739 and WMH1740 compared with the host strain, solid media) | inhibition of growth ([2]; lovastatin 5 μg/ml on solid AMM plates) | inhibition of growth ([2]; lovastatin 50 μg/ml on solid AMM plates)
C[C@@H]1CC[C@@H]2[C@@H](CC[C@@H]3C[C@@H](O)CC(=O)O3)[C@@H](C)C=C[C@H]2C1 [dihydromonocolin L, dihydromonacolin L] | varying degrees of antifungal activity | – | – | – | –
CC[C@H](C)C(=O)O[C@H]1C[C@@H](C)C=C2C=C[C@H](C)[C@H](CC[C@@H]3C[C@@H](O)CC(=O)O3)[C@H]21 [lovastatin] | varying degrees of antifungal activity | no inhibition of growth | up to 100 μg/ml | slight inhibition | almost complete growth inhibition
C[C@H]1C=C2C=C[C@H](C)[C@H](CC[C@@H]3C[C@@H](O)CC(=O)O3)[C@H]2[C@@H](O)C1 [monocolin J, monacolin J] | varying degrees of antifungal activity | – | – | – | –
C[C@H]1C=C2C=C[C@H](C)[C@H](CC[C@@H]3C[C@@H](O)CC(=O)O3)[C@H]2CC1 [monocolin L, monacolin L] | varying degrees of antifungal activity | – | – | – | –
